Measured values: patent US7135581B2, “Antiangiogenic agents” (Entremed, Inc., priority 2000, dated 2006)
Where two headings read alike, the source gives them in different places.

Key:
[1] = test system: HUVEC and MDA-MB-231 cells; experiment: in vitro antiproliferative screening, endothelial versus tumor cells; assay type: cell-based, human; conditions: for difference between inhibition of tumor cells and of endothelial cell proliferation (selectivity): MDA-MB-231 versus HUVEC; for antiproliferative activity in vitro (in words): cell line not specified
Source text: Compounds with no chain or with variable methylene chain lengths (1–4) were synthesized by replacing hydroxyl group at position-17 of D-ring of 2ME2 to block estrone formation or glucuronation. Similarly several analogs of 17-deoxyestrone with modification at position-2 were synthesized to block the both glucuronation and hydrolysis of the methoxy group to the hydroxyl. For these analogs data will be presented on the synthesis and preliminary in vitro screening in human umbilical vein endothelial cells (HUVEC) and breast cancer tumor MDA-MB-231 cells for antiproliferative activity, and in MCF-7 tumor cancer cells for estrogenic activity.
In order to assess the biological activity of modifications at position 16, the anti-proliferative activity of these analogs was evaluated on human umbilical vein endothelial cells (HUVEC) and breast carcinoma cell line, MDA-MB-231 as models for the anti-angiogenic and anti-tumor activity, respectively.

[2] = test system: chick embryo chorioallantoic membrane; experiment: chick embryo chorioallantoic membrane (CAM) assay; assay type: in vivo; conditions: 100 μg disk, after 48 hours
Description: Anti-proliferative activity is evaluated in situ by testing the ability of an improved estradiol derivative to inhibit the proliferation of new blood vessel cells (angiogenesis). A suitable assay is the chick embryo chorioallantoic membrane (CAM) assay described by Crum et al. Science 230:1375 (1985). See also, U.S. Pat. No. 5,001,116, hereby incorporated by reference, which describes the CAM assay. Briefly, fertilized chick embryos are removed from their shell on day 3 or 4, and a methylcellulose disc containing the drug is implanted on the chorioallantoic membrane. The embryos are examined 48 hours later and, if a clear avascular zone appears around the methylcellulose disc, the diameter of that zone is measured.

MCF7 cells = experiment: MCF7 estrogen-dependent proliferation assay (cell counting); assay type: cell-based; conditions: for MCF7 Fold stimulation: estrogen-dependent proliferation
Description: MCF7 cells, an estrogen dependent breast carcinoma cell line, were maintained in DMEM/F12 (1:1) containing 10% (v/v) fetal bovine serum (Hyclone Laboratories, Logan, Utah) and 1×antibiotic-antimytotic. MCF7 cells were used between passage 60 and passage 90. For MCF7 estrogen-dependent proliferation assay the cells were seeded in complete media at 20–30,000 cells/well in a 24 well plate. After allowing the cells to adhere overnight the seeding density was determined by cell counts. Cells were washed with PBS (37° C.) and starved by placing them in IMEM-phenol red free media containing 2% charcoal-dextran fetal bovine-stripped serum (Georgetown University) and 1×antibiotic-antimitotic. After 3 days of starvation, cells were treated with or without increasing concentrations of compounds, replacing the media every 2–3 days and counted after 8 or 10 days of treatment. Proliferation was measured by cell counting using a Coulter Z1 cell counter (Coulter Corporation, Hialeah, Fla.). Each condition was done in triplicate.

[3] = test system: MDA-MB-231 human breast carcinoma cells; experiment: MDA-MB-231 in vitro cellular proliferation inhibition (BrdU); assay type: cell-based
Description: MDA-MB-231 human breast carcinoma cells were grown in DMEM containing 10% FCS (Hyclone Laboratories, Logan Utah) and supplemented with 2 mM L-Glutamine, 100 units/ml penicillin, 100 μg/ml streptomycin (Irvine Scientific, Santa Anna, Calif.).
MDA-MB-231 cells were plated at 5000 cells/ml in 96-well plates. After allowing the cells to attach overnight, the appropriate fresh media were applied containing differing concentrations of 2-ME2 or derivatives thereof, as described below. Drug was dissolved in DMSO (Sigma, St. Louis, Mo.) and added to the wells in a volume of 200 μl. Cells were incubated for two days at 37° C.; at 32 h BrdU was added. BrdU cell proliferation assay (a nucleotide analogue that is incorporated into DNA) was performed as described by the manufacturer (Roche). Each condition was prepared in triplicate and the experiments were carried out a minimum of two times. Results presented are means +/− SE.

HUVEC cells = experiment: HUVEC in vitro cellular proliferation inhibition (BrdU, bFGF); assay type: cell-based, human
Description: HUVEC cells were grown in EGM (Clonetics).
HUVEC cells were plated at 5000 cells/ml in 96-well plates. After allowing the cells to attach overnight, the cells were washed with PBS and incubated in the absence of growth factor for 24 h (EBM, 2% FCS, Clonetics). Cells were treated with increasing concentrations of drug in EBM containing 2% FCS and 10 ng/ml bFGF for 48 h at 37° C. Drug preparation, volumes added and BrdU proliferation assay were performed as indicated above.
2-Methoxyestradiol is a potent anti-angiogenic and anti-tumor agent. In order to assess the biological activity of modifications at position 16, the anti-proliferative activity of these analogs was evaluated on human umbilical vein endothelial cells (HUVEC) and breast carcinoma cell line, MDA-MB-231 as models for the anti-angiogenic and anti-tumor activity, respectively.

[4] = test system: vascular endothelial cell proliferation; conditions: cited from earlier work
[5] = Table 4, dehydrogenated/substituted 2ME2 derivatives, read-out: MDA-MB-231 (IC50 μM)
[6] = Table 4, dehydrogenated/substituted 2ME2 derivatives
[7] = Homo sapiens, MDA-MB-231, Table 2, 2 substituted E2 derivatives, read-out: MDA-MB-231 (IC50 μM)
[8] = Homo sapiens, HUVEC, Table 2, 2 substituted E2 derivatives

16β-(hydroxymethyl)estra-1,3,5(10)-triene-3,17β-diol [Table 3, Entry 6]
difference between inhibition of tumor cells and of endothelial cell proliferation (selectivity) [1]: 10 fold

COc1cc2c(cc1O)CC[C@@H]1[C@@H]2CC[C@]2(C)[C@@H](O)CC[C@@H]12 [2-Methoxyestradiol, reference compound]
inhibition of cell mitosis and growth of new blood vessels [2]: inhibit cell mitosis and the growth of new blood vessels | estrogenic activity, proliferation in estrogen dependant MCF-7 cells (in words) (MCF7 cells): not estrogenic over a wide range of concentrations | MCF7 Fold stimulation (MCF7 cells; Table 1): 1.75 | MCF7 Fold stimulation (MCF7 cells; Table 2): 1.75 | MCF7 Fold stimulation (MCF7 cells; Table 3): 1.75 | IC50 ([3]; Table 1, 17 substituted 2ME2 derivatives, means +/− SE, read-out: MDA-MB-231 (IC50 μM)): 0.5 ± 0.05 µM | IC50 ([3]; Table 2, 2 substituted E2 derivatives, read-out: MDA-MB-231 (IC50 μM)): 0.5 µM | IC50 ([3]; Table 3, 16 substituted 2ME2 derivatives, read-out: MDA-MB-231 (IC50 μM)): 0.5 ± 0.05 µM | IC50 [3, 5]: 0.5 ± 0.05 µM | IC50 (HUVEC cells; Table 1, 17 substituted 2ME2 derivatives): 0.66 ± 0.02 µM | IC50 (HUVEC cells; Table 2, 2 substituted E2 derivatives): 0.66 µM | IC50 (HUVEC cells; Table 3, 16 substituted 2ME2 derivatives): 0.66 ± 0.02 µM | IC50 (HUVEC cells; [6]): 0.66 ± 0.02 µM

COc1cc2c(cc1O)CC[C@@H]1C2=CC[C@]2(C)[C@@H](O)CC[C@@H]12 [2-methoxy-estra-1,3,5(10)9(11)-tetraene-3,17β-diol]
IC50 [3, 5]: 0.45 µM | IC50 (HUVEC cells; [6]): 0.25 µM

CO[C@@H]1[C@H](OC(=O)NC(=O)CCl)CC[C@]2(CO2)[C@H]1[C@@]1(C)O[C@@H]1CC=C(C)C [AGM-1470]
half-maximal inhibition of vascular endothelial cell proliferation at lower concentration than tumor cell proliferation [4]: 4 logs

COc1cc2c(cc1OC(C)=O)CCC1C2CC[C@@]2(C)C1CC[C@@H]2OC(C)=O (stereo partly drawn) [Entry 6]
IC50 ([3]; Homo sapiens, MDA-MB-231, Table 1, 17 substituted 2ME2 derivatives, means +/− SE, read-out: MDA-MB-231 (IC50 μM)): 0.59 ± 0.15 µM | IC50 (HUVEC cells; Homo sapiens, HUVEC, Table 1, 17 substituted 2ME2 derivatives): 3.6 ± 2 µM

COc1cc2c(cc1O)CC[C@@H]1[C@@H]2CC[C@]2(C)CCC[C@@H]12 [Table 1, Entry 3, 2-methoxyestra-1,3,5(10)-triene-3-ol]
antiproliferative activity in vitro (in words) ([1]; listed as 2-Methoxy-17-deoxyestrone): equal or better antiproliferative activity than 2ME2 | antiproliferative activity in vitro (in words) ([1]; listed as dehydroxy derivative): in vitro profile analogous to 2-methoxyestradiol

COc1cc2c(cc1O)CC[C@@H]1[C@@H]2CC[C@]2(C)[C@@H](C)CC[C@@H]12 [Table 1, Entry 8, 2-methoxy-17β-methylestra-1,3,5(10)-triene-3-ol]
antiproliferative activity in vitro (in words) [1]: equal or better antiproliferative activity than 2ME2

CC[C@H]1CC[C@H]2[C@@H]3CCc4cc(O)c(OC)cc4[C@H]3CC[C@]12C [Table 1, Entry 13, 2-methoxy-17β-ethylestra-1,3,5(10)-triene-3-ol]
antiproliferative activity in vitro (in words) [1]: equal or better antiproliferative activity than 2ME2

CC(=O)c1cc2c(cc1O)CC[C@@H]1[C@@H]2CC[C@]2(C)[C@@H](O)CC[C@@H]12 [Table 2, Entry 2, 2-acetylestra-1,3,5(10)-triene-3,17β-diol]
activity in breast tumor MDA-MB-231 cells (in words) [3]: good activity | antiproliferative activity in HUVEC / endothelial cells (in words) (HUVEC cells): poor activity

C[C@]12CC[C@@H]3c4cc(C=O)c(O)cc4CC[C@H]3[C@@H]1CC[C@@H]2O [Table 2, Entry 3, 2-formylestra-1,3,5(10)-triene-3,17β-diol]
activity in breast tumor MDA-MB-231 cells (in words) [3]: poor activity

C[C@]12CC[C@@H]3c4cc(CO)c(O)cc4CC[C@H]3[C@@H]1CC[C@@H]2O [Table 2, Entry 4, 2-(hydroxymethyl)estra-1,3,5(10)-triene-3,17β-diol]
activity in breast tumor MDA-MB-231 cells (in words) [3]: poor activity

C[C@]12CC[C@@H]3c4cc(N=[N+]=[N-])c(O)cc4CC[C@H]3[C@@H]1CC[C@@H]2O [Table 2, Entry 17, 2-Azidoestra1,3,5(10)-triene-3,17β-diol]
IC50 ([3]; Homo sapiens, MDA-MB-231, read-out: MDA-MB-231 (IC50 μM)): 13.3 µM | antiproliferative activity in vitro (in words) [1]: retained considerable antiproliferative activity

CCOc1cc2c(cc1O)CC[C@@H]1[C@@H]2CC[C@]2(C)[C@@H](O)CC[C@@H]12 [Table 2, Entry 18, 2-ethoxyestra-1,3,5(10)-triene3,17β-diol]
IC50 [3, 7]: 0.179 µM | IC50 (HUVEC cells; [8]): 0.06 µM

C[C@@]12CCC[C@H]1[C@@H]1CCc3cc(O)ccc3[C@H]1CC2 [Table 2, Entry 19, estra-1,3,5(10)-triene-3-ol]
IC50 [3, 7]: 33.9 µM | IC50 (HUVEC cells; [8]): 8.66 µM

COc1cc2c(cc1O)CC[C@@H]1[C@@H]2CC[C@]2(C)[C@@H](O)[C@H](C)C[C@@H]12 [Table 3, Entry 2, 2-methoxy-16α-methylestra-1,3,5(10)-triene-3,17β-diol]
activity in MDA-MB-231 compared to 2-methoxyestradiol (in words) [3]: better activity than 2-methoxyestradiol

COc1cc2c(cc1O)CC[C@@H]1[C@@H]2CC[C@]2(C)[C@@H](O)[C@@H](C)C[C@@H]12 [Table 3, Entry 3, 2-methoxy-16β-methylestra-1,3,5(10)-triene-3,17β-diol]
drop in activity in MDA-MB-231 compared to 2-methoxyestradiol [3]: about 5 fold

CCC1C[C@H]2[C@@H]3CCc4cc(O)c(OC)cc4[C@H]3CC[C@]2(C)[C@H]1O (stereo partly drawn) [Table 3, Entry 4, 2-methoxy-16-ethylestra-1,3,5,(10)-triene-3,17β-diol]
drop in activity in MDA-MB-231 compared to 2-methoxyestradiol [3]: ~3 fold | inhibition of HUVEC cell proliferation compared to 2-methoxyestradiol (in words) (HUVEC cells): about equipotent to 2-methoxyestradiol

CCC[C@@H]1C[C@H]2[C@@H]3CCc4cc(O)c(OC)cc4[C@H]3CC[C@]2(C)[C@H]1O [Table 3, Entry 7, 2-methoxy-16α-propaneestra-1,3,5(10)-triene-3,17β-diol]
antiproliferative activity in HUVEC / endothelial cells (in words) (HUVEC cells): good activity | difference between inhibition of tumor cells and of endothelial cell proliferation (selectivity) [1]: more than ten-fold less active
